Test results reported in patent US12121504B1, “Method for producing 1,3-diolein from biomass” (KING SAUD UNIVERSITY, priority 2024, dated 2024).

Test system: C. auris strain
Type: cell-based, Candida auris
Details: C. auris strain used in the anti-fungal test
Procedure: The biological activity of compound 1 (linoleic acid) as an antifungal agent against fluconazole- and caspofungin-resistant C. auris was evaluated using disk diffusion assay for determining the inhibition zone (mm) and two-fold serial microdilution assay for determining the minimal inhibitory concentration (MIC) (mg/mL) according to Dilika et al., (2000) and Zheng et al., (2005). The hexadecanoic acid and isopropyl myristate were prepared (both compounds (data not shown) were used in this stage as a negative control).

CC[C@H](C)C[C@H](C)CCCCCCCCC(=O)N[C@H]1C[C@@H](O)[C@@H](NCCN)NC(=O)[C@@H]2[C@@H](O)CCN2C(=O)[C@H]([C@H](O)CCN)NC(=O)[C@H]([C@H](O)[C@@H](O)c2ccc(O)cc2)NC(=O)[C@@H]2C[C@@H](O)CN2C(=O)[C@H]([C@@H](C)O)NC1=O [caspofungin]
susceptibility of C. auris strain to standard anti-fungal drug: resistant

OC(Cn1cncn1)(Cn1cncn1)c1ccc(F)cc1F [fluconazole]
susceptibility of C. auris strain to standard anti-fungal drug: resistant
